In brackets after ≈: the same amount, converted by molar mass.
How the values were obtained:
Type in all cases: functional
Candida albicans [1] = assay: Fungicidal activity against Candida albicans isolate 11 assessed as fungal killing incubated for 48 hrs followed by plating on SD agar plate
Candida albicans [2] = assay: Antifungal activity against Candida albicans isolate 9 assessed as reduction in fungal growth incubated for 48 hrs by broth microdilution method
Nakaseomyces glabratus [3] = assay: Antifungal activity against Candida glabrata ATCC 2001 assessed as reduction in fungal growth incubated for 48 hrs by broth microdilution method
Pichia kudriavzevii [4] = assay: Fungicidal activity against Candida krusei ATCC 34135 assessed as fungal killing incubated for 48 hrs followed by plating on SD agar plate
Candida albicans [5] = assay: Fungicidal activity against Candida albicans ATCC 10231 assessed as fungal killing incubated for 48 hrs followed by plating on SD agar plate
Candida albicans [6] = assay: Antifungal activity against Candida albicans isolate 8 assessed as reduction in fungal growth incubated for 48 hrs by broth microdilution method
Candida albicans [7] = assay: Fungicidal activity against Candida albicans isolate 13 assessed as fungal killing incubated for 48 hrs followed by plating on SD agar plate
Candida albicans [8] = assay: Fungicidal activity against Candida albicans ATCC 18804 assessed as fungal killing incubated for 48 hrs followed by plating on SD agar plate
Candida albicans [9] = assay: Fungicidal activity against Candida albicans isolate 7 assessed as fungal killing incubated for 48 hrs followed by plating on SD agar plate
Candida albicans [10] = assay: Antifungal activity against Candida albicans isolate 10 assessed as reduction in fungal growth incubated for 48 hrs by broth microdilution method
Candida albicans [11] = assay: Fungicidal activity against Candida albicans isolate 12 assessed as fungal killing incubated for 48 hrs followed by plating on SD agar plate
Candida albicans [12] = assay: Fungicidal activity against Candida albicans isolate 6 assessed as fungal killing incubated for 48 hrs followed by plating on SD agar plate
Candida albicans [13] = assay: Fungicidal activity against Candida albicans isolate 9 assessed as fungal killing incubated for 48 hrs followed by plating on SD agar plate
Candida albicans [14] = assay: Antifungal activity against Candida albicans ATCC 18804 assessed as reduction in fungal growth incubated for 48 hrs by broth microdilution method
Candida albicans [15] = assay: Antifungal activity against Candida albicans isolate 11 assessed as reduction in fungal growth incubated for 48 hrs by broth microdilution method
Pichia kudriavzevii [16] = assay: Antifungal activity against Candida krusei ATCC 34135 assessed as reduction in fungal growth incubated for 48 hrs by broth microdilution method
Candida albicans [17] = assay: Antifungal activity against Candida albicans isolate 13 assessed as reduction in fungal growth incubated for 48 hrs by broth microdilution method
Candida tropicalis [18] = assay: Fungicidal activity against Candida tropicalis ATCC 28707 assessed as fungal killing incubated for 48 hrs followed by plating on SD agar plate; conditions: for MFC: read-out: MFC99.9
Candida albicans [19] = assay: Antifungal activity against Candida albicans isolate 12 assessed as reduction in fungal growth incubated for 48 hrs by broth microdilution method
Candida albicans [20] = assay: Antifungal activity against Candida albicans ATCC 10231 assessed as reduction in fungal growth incubated for 48 hrs by broth microdilution method
Nakaseomyces glabratus [21] = assay: Fungicidal activity against Candida glabrata ATCC 2001 assessed as fungal killing incubated for 48 hrs followed by plating on SD agar plate
Candida tropicalis [22] = assay: Antifungal activity against Candida tropicalis ATCC 28707 assessed as reduction in fungal growth incubated for 48 hrs by broth microdilution method
Candida albicans [23] = assay: Antifungal activity against Candida albicans isolate 7 assessed as reduction in fungal growth incubated for 48 hrs by broth microdilution method
Candida albicans [24] = assay: Antifungal activity against Candida albicans isolate 6 assessed as reduction in fungal growth incubated for 48 hrs by broth microdilution method
Candida albicans [25] = assay: Fungicidal activity against Candida albicans isolate 10 assessed as fungal killing incubated for 48 hrs followed by plating on SD agar plate
Candida albicans [26] = assay: Antifungal activity against Candida albicans ATCC 10231 assessed as reduction in fungal growth incubated for 48 hrs in presence of ergosterol by broth microdilution method
Nakaseomyces glabratus [27] = assay: Antifungal activity against Candida glabrata ATCC 2001 assessed as reduction in fungal growth incubated for 48 hrs in presence of ergosterol by broth microdilution method
Pichia kudriavzevii [28] = assay: Antifungal activity against Candida krusei ATCC 34135 assessed as reduction in fungal growth incubated for 48 hrs in presence of ergosterol by broth microdilution method
Candida albicans [29] = assay: Antibiofilm activity against Candida albicans ATCC 10231 assessed as reduction in mature biofilm at 125 ug/ml incubated for 48 hrs by crystal violet staining based spectrophotometric analysis relative to control; conditions: dose 125.0 µg/ml
Candida tropicalis [30] = assay: Antifungal activity against Candida tropicalis ATCC 28707 assessed as reduction in fungal growth incubated for 48 hrs in presence of ergosterol by broth microdilution method
Candida albicans [31] = assay: Fungicidal activity against Candida albicans isolate 8 assessed as fungal killing incubated for 48 hrs followed by plating on SD agar plate

Row | Molecule | MIC (Candida albicans [2]) [mg/L] | MIC (Nakaseomyces glabratus [3]) [mg/L] | MIC (Candida albicans [6]) [mg/L] | MIC (Candida albicans [10]) [mg/L] | MIC (Candida albicans [14]) [mg/L] | MIC (Candida albicans [15]) [mg/L] | MIC (Pichia kudriavzevii [16]) [mg/L] | MIC (Candida albicans [17]) [mg/L] | MFC (Candida tropicalis [18]) [mg/L] | MIC (Candida albicans [19]) [mg/L] | MIC (Candida albicans [20]) [mg/L] | MIC (Candida tropicalis [22]) [mg/L] | MIC (Candida albicans [23]) [mg/L] | MIC (Candida albicans [24]) [mg/L] | also measured
1 | COC(=O)CCNCCCCCCCCCCCCOCCCc1cccnc1 | 250 (≈ 615 µM) | 160 (≈ 393 µM) | > 500 | 250 (≈ 615 µM) | 250 (≈ 615 µM) | 250 (≈ 615 µM) | 250 (≈ 615 µM) | 160 (≈ 393 µM) | 160 (≈ 393 µM) | 250 (≈ 615 µM) | 250 (≈ 615 µM) | 160 (≈ 393 µM) | 250 (≈ 615 µM) | 250 (≈ 615 µM) | MFC (Candida albicans [1]; read-out: MFC99.9): 250 mg/L (≈ 615 µM); MFC (Pichia kudriavzevii [4]; read-out: MFC99.9): 250 mg/L (≈ 615 µM); MFC (Candida albicans [5]; read-out: MFC99.9): 250 mg/L (≈ 615 µM); MFC (Candida albicans [7]; read-out: MFC99.9): 160 mg/L (≈ 393 µM); MFC (Candida albicans [8]; read-out: MFC99.9): 250 mg/L (≈ 615 µM); MFC (Candida albicans [9]; read-out: MFC99.9): 250 mg/L (≈ 615 µM); MFC (Candida albicans [11]; read-out: MFC99.9): > 500 mg/L; MFC (Candida albicans [12]; read-out: MFC99.9): > 500 mg/L; MFC (Candida albicans [13]; read-out: MFC99.9): 250 mg/L (≈ 615 µM); MFC (Nakaseomyces glabratus [21]; read-out: MFC99.9): 160 mg/L (≈ 393 µM); MFC (Candida albicans [25]; read-out: MFC99.9): 250 mg/L (≈ 615 µM)
2 | NYSTATIN | 4 | 4 | 4 | 4 | 4 | 4 | 8 | 2 | – | 2 | 4 | 2 | 4 | 4 | MFC99.9 (Candida albicans [1]): 4 mg/L; MIC (Candida albicans [26]): 31.2 mg/L; MFC99.9 (Pichia kudriavzevii [4]): 8 mg/L; MFC99.9 (Candida albicans [5]): 4 mg/L; MFC99.9 (Candida albicans [7]): 2 mg/L; MFC99.9 (Candida albicans [8]): 4 mg/L; MFC99.9 (Candida albicans [9]): 4 mg/L; MFC99.9 (Candida albicans [11]): 4 mg/L; MIC (Nakaseomyces glabratus [27]): 31.2 mg/L; MFC99.9 (Candida albicans [12]): 4 mg/L; MFC99.9 (Candida albicans [13]): 4 mg/L; MIC (Pichia kudriavzevii [28]): 31.2 mg/L; inhibition (Candida albicans [29]): 25%; MIC (Candida tropicalis [30]): 3.9 mg/L; MFC99.9 (Candida albicans [31]): 4 mg/L; MFC99.9 (Candida tropicalis [18]): 2 mg/L; MFC99.9 (Nakaseomyces glabratus [21]): 4 mg/L; MFC99.9 (Candida albicans [25]): 4 mg/L
3 | [N-]=[N+]=NCCCCCCCCCCCCOCCCc1cccnc1 | > 500 | > 500 | > 500 | > 500 | > 500 | > 500 | > 500 | > 500 | 160 (≈ 462 µM) | > 500 | > 500 | 40 (≈ 115 µM) | > 500 | > 500 | –

From ChEMBL document CHEMBL4732126, “Design, synthesis, and biodistribution studies of new analogues of marine alkaloids: Potent in vitro and in vivo fungicidal agents against Candida spp” (Eur J Med Chem, 2021)
